Experimental findings from BindingDB's records for doi:10.1016/j.bmc.2006.03.021 (Vernalis (R&D), 2006) are described below.

This experiment addresses T1, Serine/threonine-protein kinase Chk1 (Homo sapiens, UniProt O14757).
T1 sequence (O14757 whole entry): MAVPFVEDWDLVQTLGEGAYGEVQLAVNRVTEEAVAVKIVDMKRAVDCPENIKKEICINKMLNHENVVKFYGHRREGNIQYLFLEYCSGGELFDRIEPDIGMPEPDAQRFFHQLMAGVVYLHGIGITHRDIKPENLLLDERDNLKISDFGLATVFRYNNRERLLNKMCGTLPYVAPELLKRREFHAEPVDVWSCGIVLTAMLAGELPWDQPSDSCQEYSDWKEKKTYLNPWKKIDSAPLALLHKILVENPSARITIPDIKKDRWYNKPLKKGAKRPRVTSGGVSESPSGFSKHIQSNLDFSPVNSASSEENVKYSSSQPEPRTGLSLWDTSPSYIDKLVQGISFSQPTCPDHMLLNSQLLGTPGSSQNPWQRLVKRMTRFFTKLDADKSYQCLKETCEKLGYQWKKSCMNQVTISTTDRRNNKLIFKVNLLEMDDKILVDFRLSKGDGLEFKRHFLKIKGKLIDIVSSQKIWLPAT
The experiment in a line: Chk1 Enzymatic Assay. Conditions: pH 7.5; 30 °C. As for the experimental part: Chk1 kinase activity was assayed in reaction buffer containing substrate peptide, enzyme, and inhibitor in the presence of 100uM ATP/[gamma-33P] ATP. 33P incorporation was measured using a Perkin-Elmer Trilux scintillation counter. The IC50 is the inhibitor concentration, which inhibits 50% of kinase activity that catalyzes the transfer of the terminal phosphate from 33P labeled ATP to the substrate.
The IC50 is the concentration that gives 50% inhibition. A higher IC50 goes with lower potency. In the case of `Nc1ncnc2nc(SCC(=O)O)[nH]c12` [2-[(6-amino-9H-purin-8-yl)sulfanyl]acetic acid], the 50% inhibitory concentration (IC50) turned out to be 31.8 µM. `NN1C(=O)C([c-]2c(=O)[nH]c3ccc([N+](=O)[O-])cc32)=[S+]C1=S` [3-amino-5-[(3Z)-5-nitro-2-oxo-2,3-dihydro-1H-indol-3-ylidene]-2-sulfanylidene-1,3-thiazolidin-4-one] returned an IC50 of 72.7 µM. The same measure for `COc1ccc(Cl)cc1-c1nnc(Nc2ccc(C(=O)O)cc2)s1` [4-{[5-(5-chloro-2-methoxyphenyl)-1,3,4-thiadiazol-2-yl]amino}benzoic acid]: 26.6 µM; for `Cc1[nH]nc2c1C(c1ccc(O)c(O)c1)C(C#N)C(=N)O2` (stereo unspecified) [6-amino-4-(3,4-dihydroxyphenyl)-3-methyl-1H,4H-pyrano[2,3-c]pyrazole-5-carbonitrile]: 20.4 µM.

As for `Clc1cc2c(cc1CN=Nc1nnc3c(n1)[nH]c1ccccc13)OCO2` [(1E)-1-[(6-chloro-2H-1,3-benzodioxol-5-yl)methylidene]-2-{5H-[1,2,4]triazino[5,6-b]indol-3-yl}hydrazine], the IC50 is 20.1 µM.

With `NCCCNc1nc(F)c(Cl)c(C2c3ccccc3Sc3ccccc32)c1F` [N-(3-aminopropyl)-5-chloro-3,6-difluoro-4-(9H-thioxanthen-9-yl)pyridin-2-amine], the IC50 came out at 15.8 µM.
